In patent US20260355212A1 (priority 2022, published 2026):
Like-named read-outs stand apart in the source and are kept apart here.

How the values were obtained:
HCoV-229E Mpro = HCoV-229E Mpro (Human coronavirus 229E, UniProt P0C6X1); experiment: HCoV-229E Mpro enzymatic inhibition assay (fluorescence); format: biochemical
Experimental: (§1) The hCoV Mpro are cloned, expressed in E. coli and purified by WuXi AppTec Co., Ltd. The substrate are synthesized by Genscript Biotech.
(§2) Compounds are 3 fold serially diluted for 10 doses and added to an assay plate (384w format) using ECHO, in duplicate wells. The test concentration of test compounds is defined by sponsor. […] For no inhibition control (ZPE, zero percent effect), DMSO is added.
(§3) 25 μL of Mpro proteins are added to the assay plates containing compounds, respectively, using Multidrop. The compounds and Mpro proteins are pre-incubated at room temperature for 30 min. Then 5 µL of Mpro substrates are added to the related assay plates, respectively. Each activity testing point has a relevant background control to normalize the fluorescence interference of compound.
(§4) After 60 min incubation at 30° C., the fluorescence signal (RFU) is detected using a microplate reader M2e (SpectraMax) at Ex/Em=340 nm/490 nm.
(§5) The inhibition activity is calculated using the formula below, IC50 values will be calculated using the Inhibition % data.
(§6) Inhibition %=[(CPD−BGCPD)−(ZPE−BGZPE)/(HPE−BGHPE)−(ZPE−BGZPE)]×[…] • CPD: Signal of test compounds wells, containing compound+enzyme+substrate. • ZPE: Average of signals of zero percent effective control wells, containing enzyme+substrate, no compound. • HPE: Average of signals of hundred percent effect control wells, containing GC376+enzyme+substrate. • BG: Compound background control wells, containing compound+substrate, no enzyme
(§7) IC50 values of compounds are calculated with the GraphPad Prism software using the nonlinear regression model of log(inhibitor) vs. response—Variable slope (four parameters).

HCoV-OC43 Mpro = HCoV-OC43 Mpro (Human coronavirus OC43, UniProt P0C6X6); experiment: HCoV-OC43 Mpro enzymatic inhibition assay (fluorescence); format: biochemical
Chain of HCoV-OC43 Mpro (P0C6X6 3247-3549 limits assumed): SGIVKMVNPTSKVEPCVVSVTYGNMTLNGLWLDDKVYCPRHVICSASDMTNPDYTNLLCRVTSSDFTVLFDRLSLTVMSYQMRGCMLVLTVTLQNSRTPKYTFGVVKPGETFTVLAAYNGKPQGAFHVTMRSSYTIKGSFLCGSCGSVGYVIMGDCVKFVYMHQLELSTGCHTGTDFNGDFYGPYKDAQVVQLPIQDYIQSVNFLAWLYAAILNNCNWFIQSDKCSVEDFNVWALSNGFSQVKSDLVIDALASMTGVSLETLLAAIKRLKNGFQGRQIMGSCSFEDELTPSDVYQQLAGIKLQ
Experimental: as §1, §2, §3, §4, §5, §6, §7

SARS-CoV-2 Mpro = SARS-CoV-2 Mpro (Severe acute respiratory syndrome coronavirus 2, UniProt P0DTD1); experiment: SARS-CoV-2 Mpro enzymatic inhibition assay (fluorescence); format: biochemical
Experimental: as §1
Compounds are 3 fold serially diluted for 10 doses and added to an assay plate (384w format) using ECHO, in duplicate wells. The test concentration of test compounds is defined by sponsor.
25 μL of Mpro proteins are added to the assay plates containing compounds, respectively, using Multidrop. The compounds and Mpro proteins are pre-incubated at room temperature for 30 min. Then 5 µL of Mpro substrates are added to the related assay plates, respectively.
as §4, §5, §7

SARS-CoV-1 Mpro = SARS-CoV-1 Mpro (Severe acute respiratory syndrome coronavirus, UniProt P0C6X7); experiment: biochemical
HCoV-NL63 Mpro = HCoV-NL63 Mpro (Human coronavirus NL63, UniProt P0C6X5); experiment: HCoV-NL63 Mpro enzymatic inhibition assay (fluorescence); format: biochemical
Chain of HCoV-NL63 Mpro (P0C6X5 2940-3242 limits assumed): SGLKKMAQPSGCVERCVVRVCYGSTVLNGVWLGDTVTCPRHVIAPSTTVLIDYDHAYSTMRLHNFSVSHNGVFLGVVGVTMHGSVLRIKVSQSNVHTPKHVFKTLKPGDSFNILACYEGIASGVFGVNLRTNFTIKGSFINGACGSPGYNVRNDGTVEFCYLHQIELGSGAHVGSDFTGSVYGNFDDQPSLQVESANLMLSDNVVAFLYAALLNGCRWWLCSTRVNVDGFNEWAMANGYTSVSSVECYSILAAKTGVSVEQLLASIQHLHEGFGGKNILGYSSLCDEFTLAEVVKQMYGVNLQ
Experimental: as §1, §2, §3, §4, §5, §6, §7

MERS Mpro = MERS Mpro (Middle East respiratory syndrome-related coronavirus, UniProt K9N7C7); experiment: biochemical; set-up: species or system MERS-CoV
Chain of MERS Mpro (K9N7C7 3248-3553 limits assumed): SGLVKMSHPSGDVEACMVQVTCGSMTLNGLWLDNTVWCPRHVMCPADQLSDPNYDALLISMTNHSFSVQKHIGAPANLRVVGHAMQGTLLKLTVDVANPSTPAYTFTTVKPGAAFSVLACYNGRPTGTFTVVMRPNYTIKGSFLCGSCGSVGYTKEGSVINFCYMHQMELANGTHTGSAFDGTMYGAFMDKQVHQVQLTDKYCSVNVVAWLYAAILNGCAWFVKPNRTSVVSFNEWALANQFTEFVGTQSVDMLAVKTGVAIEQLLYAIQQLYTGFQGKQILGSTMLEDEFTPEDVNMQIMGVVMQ

HCoV-HKU1 Mpro = HCoV-HKU1 Mpro (Human coronavirus HKU1, UniProt P0C6X2); experiment: HCoV-HKU1 Mpro enzymatic inhibition assay (fluorescence); format: biochemical
Chain of HCoV-HKU1 Mpro (P0C6X2 3335-3637 limits assumed): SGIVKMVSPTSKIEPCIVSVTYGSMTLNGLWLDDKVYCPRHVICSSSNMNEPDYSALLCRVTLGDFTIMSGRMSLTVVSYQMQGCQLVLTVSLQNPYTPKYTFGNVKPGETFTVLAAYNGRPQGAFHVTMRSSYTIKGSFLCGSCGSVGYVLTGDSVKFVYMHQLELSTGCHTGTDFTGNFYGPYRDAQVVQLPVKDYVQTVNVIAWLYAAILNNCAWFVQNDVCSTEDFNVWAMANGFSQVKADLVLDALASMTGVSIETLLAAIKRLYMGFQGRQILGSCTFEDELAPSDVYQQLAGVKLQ
Experimental: as §1, §2, §3, §4, §5, §6, §7

Chain of HCoV-229E Mpro (P0C6X1 2966-3267 limits assumed): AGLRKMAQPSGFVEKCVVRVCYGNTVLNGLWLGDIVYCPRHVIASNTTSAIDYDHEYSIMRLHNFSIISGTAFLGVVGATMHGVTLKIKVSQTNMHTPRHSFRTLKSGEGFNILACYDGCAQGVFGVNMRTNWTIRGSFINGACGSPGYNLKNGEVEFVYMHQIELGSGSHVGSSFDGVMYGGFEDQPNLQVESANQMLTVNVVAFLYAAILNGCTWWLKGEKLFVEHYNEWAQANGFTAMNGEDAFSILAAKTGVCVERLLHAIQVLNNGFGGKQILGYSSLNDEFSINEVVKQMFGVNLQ

SMILES	IC50 (HCoV-229E Mpro)	IC50 (HCoV-OC43 Mpro)	IC50 (SARS-CoV-2 Mpro)	IC50 (SARS-CoV-1 Mpro)	IC50 (HCoV-NL63 Mpro)	IC50 (MERS Mpro)	IC50 (HCoV-HKU1 Mpro)	IC50 (SARS-CoV-2 Mpro; mean, 25 nM protein, 25 μM substrate, 30 min pre-incubation, 60 min at 30° C., read-out: Mpro_SARS-CoV-2 mean IC50)	IC50 (HCoV-229E Mpro; read-out: Mpro_229E mean IC50, mean, 50 nM protein, 12.5 μM substrate, 30 min pre-incubation, 60 min at 30° C.)	IC50 (HCoV-OC43 Mpro; read-out: Mpro_OC43 mean IC50, mean, 25 nM protein, 12.5 μM substrate, 30 min pre-incubation, 60 min at 30° C.)	IC50 (SARS-CoV-1 Mpro; read-out: Mpro_SARS-CoV-1 mean IC50, mean, 25 nM protein (SARS_Mpro), 25 μM substrate, 30 min pre-incubation, 60 min at 30° C.)	IC50 (HCoV-NL63 Mpro; read-out: Mpro_NL63 mean IC50, mean, 50 nM protein, 12.5 μM substrate, 30 min pre-incubation, 60 min at 30° C.)	IC50 (MERS Mpro; read-out: Mpro_MERS mean IC50, mean, 100 nM protein, 25 μM substrate, 30 min pre-incubation, 60 min at 30° C.)	IC50 (HCoV-HKU1 Mpro; read-out: Mpro_HKU1 mean IC50, mean, 12.5 nM protein, 12.5 μM substrate, 30 min pre-incubation, 60 min at 30° C.)
CC1(C)[C@@H]2[C@@H](C(=O)N[C@H](C=O)C[C@@H]3CCNC3=O)N(C(=O)C3(c4ccccc4)CC3)C[C@@H]21 [Compound 1, (1R,2S,5S)-6,6-dimethyl-N—((S)-1-oxo-3-((S)-2-oxopyrrolidin-3-yl)propan-2-yl)-3-(1-phenylcyclopropanecarbonyl)-3-azabicyclo[3.1.0]hexane-2-carboxamide]	0.0324 µM	0.0284 µM	0.00953 µM	0.0173 µM	0.0737 µM	0.129 µM	0.0114 µM	–	–	–	–	–	–	–
O=C[C@H](C[C@@H]1CCNC1=O)NC(=O)[C@@H]1CC2(CC2)CN1C(=O)c1cc2cccc(Cl)c2[nH]1 [Compound 2, (S)-5-(7-chloro-1H-indole-2-carbonyl)-N—((S)-1-oxo-3-((S)-2-oxopyrrolidin-3-yl)propan-2-yl)-5-azaspiro[2.4]heptane-6-carboxamide]	0.0326 µM	0.0382 µM	0.00984 µM	0.0425 µM	0.0484 µM	0.199 µM	0.0104 µM	–	–	–	–	–	–	–
O=C[C@H](C[C@@H]1CCNC1=O)NC(=O)[C@@H]1CC2(CC2)CN1C(=O)c1cc2c(F)cccc2[nH]1 [Compound 3, (S)-5-(4-fluoro-1H-indole-2-carbonyl)-N—((S)-1-oxo-3-((S)-2-oxopyrrolidin-3-yl)propan-2-yl)-5-azaspiro[2.4]heptane-6-carboxamide]	0.0274 µM	0.025 µM	0.0101 µM	0.0193 µM	0.0178 µM	0.11 µM	0.00995 µM	–	–	–	–	–	–	–
CC1(C)[C@@H]2[C@@H](C(=O)N[C@H](C=O)C[C@@H]3CCNC3=O)N(C(=O)c3cc4ccc(F)c(F)c4[nH]3)C[C@@H]21 [Compound 4, (1R,2S,5S)-3-(6,7-difluoro-1H-indole-2-carbonyl)-6,6-dimethyl-N—((S)-1-oxo-3-((S)-2-oxopyrrolidin-3-yl)propan-2-yl)-3-azabicyclo[3.1.0]hexane-2-carboxamide]	0.0285 µM	0.0408 µM	0.0102 µM	0.0236 µM	0.0344 µM	0.198 µM	0.0268 µM	–	–	–	–	–	–	–
CC1(C)[C@@H]2[C@@H](C(=O)N[C@H](C=O)C[C@@H]3CCNC3=O)N(C(=O)c3cc4cccc(Cl)c4[nH]3)C[C@@H]21 [Compound 5, (1R,2S,5S)-3-(7-chloro-1H-indole-2-carbonyl)-6,6-dimethyl-N—((S)-1-oxo-3-((S)-2-oxopyrrolidin-3-yl)propan-2-yl)-3-azabicyclo[3.1.0]hexane-2-carboxamide]	0.0339 µM	0.0421 µM	0.0105 µM	0.0225 µM	0.0535 µM	0.147 µM	0.022 µM	–	–	–	–	–	–	–
CC1(C)[C@@H]2[C@@H](C(=O)N[C@H](C=O)C[C@@H]3CCNC3=O)N(C(=O)c3cc4cccc(F)c4[nH]3)C[C@@H]21 [Compound 6, (1R,2S,5S)-3-(7-fluoro-1H-indole-2-carbonyl)-6,6-dimethyl-N—((S)-1-oxo-3-((S)-2-oxopyrrolidin-3-yl)propan-2-yl)-3-azabicyclo[3.1.0]hexane-2-carboxamide]	0.0311 µM	0.0388 µM	0.0108 µM	0.0195 µM	0.0383 µM	0.168 µM	0.0251 µM	–	–	–	–	–	–	–
Cc1cccc([C@@H](C)C(=O)N2C[C@H]3[C@@H]([C@H]2C(=O)N[C@H](C=O)C[C@@H]2CCNC2=O)C3(C)C)c1 [Compound 7, (1R,2S,5S)-6,6-dimethyl-N—((S)-1-oxo-3-((S)-2-oxopyrrolidin-3-yl)propan-2-yl)-3-((R)-2-(m-tolyl)propanoyl)-3-azabicyclo[3.1.0]hexane-2-carboxamide]	0.022 µM	0.0266 µM	–	0.0129 µM	0.0336 µM	0.081 µM	0.0092 µM	0.011 µM	–	–	–	–	–	–
CC1(C)[C@@H]2[C@@H](C(=O)N[C@H](C=O)C[C@@H]3CCNC3=O)N(C(=O)C3(c4cccc(Cl)c4)CC3)C[C@@H]21 [Compound 8, (1R,2S,5S)-3-(1-(3-chlorophenyl)cyclopropanecarbonyl)-6,6-dimethyl-N—((S)-1-oxo-3-((S)-2-oxopyrrolidin-3-yl)propan-2-yl)-3-azabicyclo[3.1.0]hexane-2-carboxamide]	0.0218 µM	0.0189 µM	0.0113 µM	0.0119 µM	0.0376 µM	0.0887 µM	0.00774 µM	–	–	–	–	–	–	–
CC1(C)C[C@@H](C(=O)N[C@H](C=O)C[C@@H]2CCNC2=O)N(C(=O)c2cc3cccc(Cl)c3[nH]2)C1 [Compound 9, (S)-1-(7-chloro-1H-indole-2-carbonyl)-4,4-dimethyl-N—((S)-1-oxo-3—((S)-2-oxopyrrolidin-3-yl)propan-2-yl)pyrrolidine-2-carboxamide]	0.0309 µM	0.0651 µM	0.0121 µM	0.0378 µM	0.0523 µM	0.313 µM	0.0205 µM	–	–	–	–	–	–	–
CC(C)(C)[C@H](NC(=O)C(F)(F)F)C(=O)N1C[C@H]2[C@@H]([C@H]1C(=O)N[C@H](C=O)C[C@@H]1CCNC1=O)C2(C)C [Compound 12, (1R,2S,5S)-3-((S)-3,3-dimethyl-2-(2,2,2-trifluoroacetamido)butanoyl)-6,6-dimethyl-N—((S)-1-oxo-3-((S)-2-oxopyrrolidin-3-yl)propan-2-yl)-3-azabicyclo[3.1.0]hexane-2-carboxamide]	0.0338 µM	0.037 µM	–	0.0212 µM	0.0539 µM	0.175 µM	0.015 µM	–	–	–	–	–	–	–
CC(C)(C)NC(=O)N[C@H](C(=O)N1C[C@H]2[C@@H]([C@H]1C(=O)N[C@@H](C[C@@H]1CCNC1=O)C(=O)C(N)=O)C2(C)C)C(C)(C)C [Compound 50, (1R, 2S, 5S)—N—((S)-4-amino-3,4-dioxo-1-((S)-2-oxopyrrolidin-3-yl)butan-2-yl)-3-((S)-2-(3-(tert-butyl)ureido)-3,3-dimethylbutanoyl)-6,6-dimethyl-3-azabicyclo[3.1.0]hexane-2-carboxamide]	0.13 µM	0.171 µM	–	0.0469 µM	0.256 µM	0.621 µM	0.0342 µM	–	–	–	–	–	–	–
CC1(C)[C@@H]2[C@@H](C(=O)N[C@H](C=O)C[C@@H]3CCNC3=O)N(C(=O)CC3CCCCC3)C[C@@H]21 [Compound 54, (1R,2S,5S)-3-(2-Cyclohexylacetyl)-6,6-dimethyl-N—((S)-1-oxo-3-((S)-2-oxopyrrolidin-3-yl)propan-2-yl)-3-azabicyclo[3.1.0]hexane-2-carboxamide]	–	–	–	–	–	–	–	–	0.0364 µM	0.0567 µM	0.0378 µM	0.0426 µM	0.285 µM	0.0188 µM
O=C[C@H](C[C@@H]1CCNC1=O)NC(=O)[C@@H]1[C@H]2CCC[C@H]2CN1C(=O)COc1ccc(Cl)cc1Cl [Compound 63, (1S,3aR,6aS)-2-(2-(2,4-Dichlorophenoxy)acetyl)-N—((S)-1-oxo-3-((S)-2-oxopyrrolidin-3-yl)propan-2-yl)octahydrocyclopenta[c]pyrrole-1-carboxamide]	0.0538 µM	0.0668 µM	–	0.0321 µM	0.105 µM	0.382 µM	0.0397 µM	–	–	–	–	–	–	–
